Results from publication PMC11009412, “Pathogenic mutations of human phosphorylation sites affect protein–protein interactions” (Nature Communications, 2024).
Values joined by “and” are separate entries in the source; they are usually repeats but may differ in a detail not shown here. Equal values may be shown once. Each block holds one compound with its values, some of them ahead of it. Non-standard residues stand in square brackets, D forms with d. Residues, ends and D or L forms follow the SMILES beside them. pS = N[C@@H](COP(=O)(O)O)C(=O)O

How the values were obtained:
14-3-3 family proteins = assay: PRISMA peptide pull-down screen, 14-3-3 binding to GATAD1 peptides; design: species or system human; settings: LFQ volcano plot and SILAC scatter plot; HEK-293 lysate, triplicates
Description: (§1) A total of 117 peptides, consisting of 15 amino acids each, were synthesized in situ on a cellulose membrane using SPOT synthesis techniques[25] provided by JPT Peptide Technologies in Berlin, Germany. Among these peptides, 39 were wild-type non-phosphorylated, 39 were mutated, and 39 were phosphorylated. Whenever possible, the mutation site was positioned at position 7, which is in the center of the immobilized peptides, with their C-termini serving as the point of immobilization.
(§2) For the experimental procedure, three membranes were initially incubated with the lysis buffer (HEPES (50 mM, pH 7.9), NaCl (150 mM), EGTA (1 mM), MgCl2 (1 mM), glycerol (20%), NP-40 (1%), SDS (0.1%), and sodium deoxycholate (0.5%)). The membranes were incubated with the lysis buffer until completely moistened. […]
(§3) HEK-293 cells were lysed with the lysis buffer and the protein concentration was measured using DC protein assay (Bio-Rad). […]
(§4) During the analysis, peptides were eluted from the analytical column at a flow rate of 500 nl/min, employing a gradient as follows: 5 to 10% B over 5 min, 10 to 40% B over 60 min, 40 to 99% B over 5 min, and maintaining 99% B for 5 min. The samples were measured in the orbitrap fusion mass spectrometer using the following methods: a full scan was performed with a resolution of 120,000 over an m/z range of 300–1500. […]

14-3-3 epsilon (YWHAE) = molecular target: T1, 14-3-3 epsilon (YWHAE) (Homo sapiens, UniProt P62258); assay: Isothermal titration calorimetry (ITC) of GATAD1 peptides with 14-3-3ε; type: binding; settings: 18 °C, 400 µM peptide in syringe, 25 µM 14-3-3ε in chamber, 20 mM HEPES pH 7.0, 150 mM NaCl, 2 mM DTT
T1 construct: residues 1 and 236-255 are disordered and therefore not visible in the electron density; GST (N, cleaved yes); made in house; host or cells: Escherichia coli C41 (DE3)
T1 sequence (P62258 1-255): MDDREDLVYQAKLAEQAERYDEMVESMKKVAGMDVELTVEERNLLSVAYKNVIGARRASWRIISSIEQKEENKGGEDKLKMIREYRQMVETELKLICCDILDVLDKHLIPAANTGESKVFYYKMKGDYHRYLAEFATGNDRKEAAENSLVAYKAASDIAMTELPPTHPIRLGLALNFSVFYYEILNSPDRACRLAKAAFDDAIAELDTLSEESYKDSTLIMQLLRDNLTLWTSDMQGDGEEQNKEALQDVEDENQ
Description: The 14-3-3ε (YWHAE) cDNA was purchased from Twist Bioscience in the pTwist Chlor High Copy vector and cloned into the pGEX6P1 plasmid (GE Healthcare) for recombinant expression as a GST-fusion protein followed by a Prescission protease cleavage site. The plasmid was freshly transformed into Escherichia coli C41 (DE3) cells. Cultures were grown in terrific broth supplemented with ampicillin (100 μg/ml) at 37 °C and 80 rpm until an optical density at 600 nm of 0.7 was reached. […] Cells were harvested by centrifugation at 4000 g and frozen at −20 °C.
Following resuspension in lysis buffer (50 mM HEPES/NaOH pH 7.5, 500 mM NaCl and 3 mM Dithiothreitol (DTT)) supplemented with 1 mg deoxyribonuclease I (DNaseI, Roche) and protease inhibitor 4-(2-Aminoethyl) benzenesulfonyl fluoride hydrochloride S7(AEBSF), cells were disrupted using a microfluidizer (Microfluidics). The cell extract was centrifuged at 55,000 g for 45 min at 4 °C to remove insoluble parts. The cleared supernatant was applied onto a prepacked Glutathione Sepharose 4B column (Cytiva) equilibrated in the lysis buffer. The column was extensively washed with lysis buffer. To cleave off the GST tag, 1 mg PreScission protease was diluted in 5 ml OCC buffer (50 mM HEPES/NaOH pH 7.5, 150 mM NaCl, and 3 mM DTT), applied to the column material, and incubated overnight at 4 °C. Cleaved 14-3-3ε protein was eluted from the column using OCC buffer, concentrated and loaded onto an 16/60 S200 column (Cytiva) equilibrated in SEC buffer (20 mM HEPES/NaOH pH 7.5, 150 mM NaCl and 2 mM DTT). Pure and homogenous 14-3-3ε was concentrated to 13 mg/ml, flash-frozen in liquid nitrogen, and stored at −80 °C until further use.
GATAD1 peptides used in these experiments were obtained from JPT peptide technologies with an N-terminus in amine and a C-terminus in amide form with 95% purity. ITC experiments were performed using a PEAQ-ITC microcalorimeter (Malvern). All titrations were performed at 18 °C with 400 µM peptide in the syringe and 25 µM 14-3-3ε in the reaction chamber. The protein and the titration components were dissolved in a buffer containing 20 mM HEPES pH 7.0, 150 mM NaCl, and 2 mM DTT. Malvern software was used for data visualization and fitting. The raw ITC results can be found in Supplementary Fig. 42.

[1] = system: 14-3-3 proteins (beta/alpha, gamma, epsilon, zeta, eta and theta); assay: Alanine scanning PRISMA pull-down, 14-3-3 proteins; type: binding, human; settings: PRISMA pull-down from HEK-293T lysate, LFQ, triplicates
Description: In this experiment, each amino acid from the −5 to +5 positions surrounding the phosphorylated residue was mutated to alanine, except for original alanine residues which were mutated to glycine. The experiment also included the wild-type phosphorylated, wild-type non-phosphorylated, disease-associated mutant, and aspartic acid mutant peptides. These 15 peptides were synthesized on a cellulose membrane in triplicates (n = 3 biological replicates) to facilitate the pull-down of proteins from HEK-293T cell lysate. The synthesis of peptides, pull-downs, and sample preparation for mass spectrometry followed the procedures described earlier for the PRISMA screen. Subsequently, samples were eluted from StageTips using a solution containing 50% acetonitrile and 0.1% formic acid, dried, and resuspended in a solution containing 3% acetonitrile and 0.1% formic acid. […]
The acquired mass spectra were subjected to further analysis using MaxQuant (version 1.6.3.4). […] The LFQ values of significant proteins were z-scored by row and hierarchical clustering was performed (Fig. 6A and Supplementary Data 5). To better visualize the 14-3-3 proteins, their LFQ values were extracted from the whole table and were z scored and clustered individually (Fig. 5C).

GRB2 = assay: PRISMA peptide pull-down screen, GRB2 binding to the EGFR control peptide; design: species or system human; settings: PRISMA pull-down from SILAC-labelled HEK-293 lysate; in all three replicates
Description: as §1, §2, §3, §4

N (stoichiometry) by ITC (14-3-3 epsilon (YWHAE)): 1.42 ± 0.04
Kd (14-3-3 epsilon (YWHAE); PEAQ-ITC, peptides N-terminal amine, C-terminal amide, read-out: Kd (binding constant) by ITC): ~3 µM and 3.4 µM
Compound: CC(C)C[C@H](N)C(=O)N[C@@H](CCCNC(=N)N)C(=O)N[C@@H](CC(N)=O)C(=O)N[C@H](C(=O)N[C@@H](CCCCN)C(=O)N[C@@H](Cc1ccc(O)cc1)C(=O)N[C@@H](CCCCN)C(=O)N[C@@H](COP(=O)(O)O)C(=O)N[C@@H](C)C(=O)N1CCC[C@H]1C(=O)N[C@@H](C)C(=O)N[C@@H](C)C(=O)N[C@@H](CCC(=O)O)C(=O)N[C@@H](CCCCN)C(=O)N[C@@H](CCCCN)C(N)=O)[C@@H](C)O [GATAD1_phos] (H-LRNTKYK[pS]APAAEKK-NH2)
Specific and differential binding of 14-3-3 proteins in PRISMA (in words) (14-3-3 family proteins): specifically interacts with the multiple 14-3-3 protein family members

Interaction with 14-3-3ε by ITC (in words) (14-3-3 epsilon (YWHAE)): do not interact
Compound: LRNTKYKDAPAAEKK [S102D, phosphomimetic S102D mutant GATAD1 peptide]
14-3-3 proteins pulled down in alanine scanning (in words) [1]: did not interact

SILAC ratio phos/mut of GRB2 (GRB2): > 20
SILAC ratio phos/wt of GRB2 (GRB2): > 20
Compound: TFLPVPEpYINQSVPK [EGFR_phos, positive control, well-characterized EGFR-derived phosphopeptide]
